According to PubChem BioAssay (NCI):
“And” between values parts separate entries of the source, which are not always exact repeats. Equal values may be shown once.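 Tested at 5 concentrations; 48 h exposure; 96-well plates; endpoints linearly interpolated, else capped at highest concentration. Abbreviation: GI50, concentration required for 50% inhibition of growth. TGI denotes the concentration required for complete inhibition of growth.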 Where a SMILES comes first, the peptide text is derived from it. [ ]: non-standard residue; d: D form. Ava = NCCCCC(=O)O; Mpa = O=C(O)CCS

Assays:
Assay in all cases: NCI-60 cell line screen, 48 h
[1] = system: RPMI-8226 leukemia
[2] = system: SN12C renal
[3] = system: SK-MEL-5 melanoma
[4] = system: SF-268 CNS
[5] = system: EKVX NSCLC
[6] = system: HOP-62 NSCLC
[7] = system: NCI-H23 lung
[8] = system: MDA-MB-435
[9] = system: SK-MEL-2 melanoma
[10] = system: SF-539 CNS

SMILES | TGI [1] | TGI [2] | TGI [3] | TGI [4] | TGI [5] | TGI [6] | TGI [7] | TGI [8] | TGI [9] | TGI [10] | GI50 [2] | GI50 [4] | GI50 [7] | GI50 [10] | GI50 [1] | GI50 [3] | GI50 [5] | GI50 [6]
O=C(N/N=C\c1ccc(Cl)cc1)Nc1ccc2ccccc2c1 | > 100 µM | > 100 µM | > 100 µM | 71.3 µM | > 100 µM | 51.3 µM | > 100 µM | > 100 µM | > 100 µM | 75.7 µM |  |  |  |  |  |  |  | 
CC(NC(=O)CCS)C(=O)NC(C)C(=O)NC(Cc1c[nH]c2ccccc12)C(=O)NC(Cc1c[nH]cn1)C(=O)NC(CO)C(=O)NC(Cc1c[nH]c2ccccc12)C(=O)NCCCCC(=O)NC(C)C(=O)NC(CCC(N)=O)C(=O)NC(CCCCN)C(=O)NC(C)C(=O)NC(CCCNC(=N)N)C(=O)NC(CCCCN)C(N)=O (stereo not given) ([Mpa]AAWHSW[Ava]AQKARK-NH2; configuration not given here) | > 100 µM | > 100 µM | > 100 µM | > 100 µM | > 100 µM | > 100 µM | > 100 µM | > 100 µM | > 100 µM | > 100 µM |  |  |  |  |  |  |  | 
CC(=O)C1=C(C)N(c2ccccc2)C2(O)C3=C(C(=O)c4ccccc4C3=O)C(O)=CC12Cl (stereo not given) | 4.39 µM | 24 µM | 9.04 µM | 60.6 µM | > 100 µM | 80.1 µM | 39.9 µM | 6.28 µM | 22.2 µM | 15.6 µM |  |  |  |  |  |  |  | 
COc1cc2c(cc1OC)C(CCN)=NCC2 | 29.9 µM | 35.1 µM | 35.6 µM | 36.3 µM | 59 µM | > 57.4 µM | 34.3 µM | 31.4 µM | 31.9 µM | 16.6 µM |  |  |  |  |  |  |  | 
COc1ccc(SCc2cc(OC)ccc2OC)cc1 | > 100 µM | > 100 µM | 98.9 µM | > 100 µM | > 100 µM | > 100 µM | > 100 µM | 13 µM | > 88.8 µM | > 100 µM |  |  |  |  |  |  |  | 
CC1=NNC(=O)C1C1(C(=O)O)CC(c2c[nH]c3ccccc23)=NC(=S)N1 (stereo not given) | 84.5 µM | > 100 µM | 27.5 µM | > 100 µM | > 100 µM | > 100 µM | 56.8 µM | > 100 µM | 81.2 µM | 67.9 µM |  |  |  |  |  |  |  | 
CCOC(=O)NC(Nc1ccc(F)cc1F)(C(F)(F)F)C(F)(F)F | > 100 µM | > 100 µM | > 100 µM | > 100 µM | > 100 µM | > 100 µM | > 100 µM | > 100 µM | > 100 µM | > 100 µM |  |  |  |  |  |  |  | 
COc1cc(/C=C/C(=O)CC(=O)/C=C/c2cc(C)c(O)c(OC)c2)cc(C)c1O | > 100 µM | > 100 µM | > 100 µM | > 100 µM | > 100 µM | > 100 µM | > 100 µM | > 100 µM | > 100 µM | > 100 µM |  |  |  |  |  |  |  | 
COC(=O)[C@@]12CSC[C@]1(C(=O)OC)N[C@@H](c1ccccc1O)C2 | > 100 µM | > 100 µM | > 100 µM | > 100 µM | > 100 µM | > 100 µM | > 100 µM | > 100 µM | > 100 µM | > 100 µM |  |  |  |  |  |  |  | 
COc1ccc(-c2c(C#N)c(N)[nH]c(=S)c2C#N)cc1 | 74.2 µM | 84.3 µM | > 100 µM | > 100 µM | > 100 µM | > 100 µM | > 100 µM | 95.5 µM | > 100 µM | > 100 µM |  |  |  |  |  |  |  | 
CS(=O)(=O)OCCN(CCOS(C)(=O)=O)c1ccc(C=Nc2ccc(-c3csc(Cc4ccccc4)n3)cc2)c(Cl)c1 | > 100 µM | > 100 µM | 40.2 µM | > 100 µM | > 100 µM | > 55.5 µM | 70.6 µM | > 78.2 µM | > 67.9 µM | > 59.6 µM |  |  |  |  |  |  |  | 
N=c1oc2cc(O)ccc2cc1C(=O)Nc1ccccn1 | > 100 µM | > 100 µM | > 100 µM | > 100 µM | > 100 µM | > 100 µM | > 100 µM | > 100 µM | 97.2 µM | > 100 µM |  |  |  |  |  |  |  | 
COC(=O)C1(Cc2ccc3c(c2)CCC3)Cc2ccc3c(c2C1=O)CCC3 (stereo not given) | 52.7 µM | > 100 µM | 28.2 µM | > 100 µM | > 100 µM | > 100 µM | > 71.6 µM | 6.13 µM | 15.4 µM | 34.8 µM |  |  |  |  |  |  |  | 
CCO/N=C\c1ccc2oc(-c3ccccc3)cc(=O)c2c1 | 9.42 µM | 11.5 µM | 5.54 µM | 24.2 µM | 36.8 µM | 28.7 µM | 9.05 µM | 2.49 µM | 4.54 µM | 2.86 µM |  |  |  |  |  |  |  | 
Nc1cc(C2CCCc3c2[nH]c2ccccc32)ccc1O (stereo not given) | 54.9 µM | > 100 µM | > 100 µM | > 100 µM | > 100 µM | > 100 µM | > 100 µM | 33.2 µM | > 100 µM | > 100 µM |  |  |  |  |  |  |  | 
Cc1cc2ncn(CC(=O)O)c2cc1C | > 100 µM | > 100 µM | > 100 µM | > 100 µM | > 100 µM | > 100 µM | > 100 µM | > 100 µM | > 100 µM | > 100 µM |  |  |  |  |  |  |  | 
Cc1[nH]n(-c2nc(-c3ccccc3)cc(=O)[nH]2)c(=O)c1CCO | > 100 µM | > 100 µM | > 100 µM | > 100 µM | > 100 µM | > 100 µM | > 100 µM | > 100 µM | > 100 µM | > 100 µM |  |  |  |  |  |  |  | 
CCCC(=O)OCC1OC(n2cc(F)c(=O)[nH]c2=O)CC1OC(=O)CCC (stereo not given) | > 10 µM | > 10 µM | 2.39 µM | > 10 µM | > 10 µM | > 10 µM | 5.02 µM | > 10 µM | > 10 µM | 0.281 µM |  |  |  |  |  |  |  | 
CCN(CC)Cc1cc(N=Nc2c(O)ccc3c(N=Nc4ccc(O)c(CN(CC)CC)c4)c(O)ccc23)ccc1O | 19 µM | 17.6 µM | 7.42 µM | 33.8 µM | 21.2 µM | 15.2 µM | 12.7 µM | 20.8 µM | > 51.6 µM | 9.2 µM |  |  |  |  |  |  |  | 
C(=N\NC1=NCCCCN1)/c1ccc2ccccc2c1 | 76.1 µM | > 100 µM | 31.3 µM | > 100 µM | > 100 µM | > 100 µM | > 100 µM | 34.7 µM | 46.7 µM | 51.3 µM |  |  |  |  |  |  |  | 
O=C(O)c1ccc2c(O)c(O)ccc2c1 | 40.2 µM | 27.7 µM | 35.6 µM | 22.3 µM | 47.7 µM | 41 µM | 50.5 µM | 34.7 µM | 67.3 µM | > 100 µM |  |  |  |  |  |  |  | 
Nc1cc(OCC2CCCCC2)nc(N)n1 | > 100 µM | > 100 µM | > 100 µM | > 100 µM | > 100 µM | > 100 µM | > 100 µM | > 100 µM | > 100 µM | > 100 µM |  |  |  |  |  |  |  | 
COc1cc2ncnc(NS(=O)(=O)c3cc4ccccc4s3)c2cc1OC | > 100 µM | > 100 µM | > 100 µM | > 100 µM | > 100 µM | > 100 µM | > 100 µM | > 100 µM | > 100 µM | > 100 µM |  |  |  |  |  |  |  | 
C/C(Cc1ccc2c(c1)OCO2)=N\N=c1\sc2ccccc2n1C | > 100 µM | > 100 µM | > 100 µM | > 100 µM | > 100 µM | > 100 µM | > 100 µM | > 100 µM | > 100 µM | > 100 µM |  |  |  |  |  |  |  | 
Nc1cc(CO)cc(Nc2c3ccccc3nc3ccccc23)c1 | > 100 µM | 35.9 µM | 30.8 µM | 60 µM | 31.8 µM | 28.8 µM | 30.1 µM | 32.6 µM | 30.5 µM | 32 µM |  |  |  |  |  |  |  | 
COc1c(C(=O)/C(=N/Nc2ccc(C(=O)O)cc2)C(C)=O)c(O)cc2occc12 | > 100 µM | > 100 µM | > 100 µM | > 100 µM | > 100 µM | > 100 µM | > 100 µM | > 100 µM | > 100 µM | > 100 µM |  |  |  |  |  |  |  | 
ClCCCN1CCN(CCCl)CC1 | 743 µM | 626 µM | 647 µM | > 892 µM | 873 µM | 168 µM | 586 µM | > 930 µM | 760 µM | 233 µM | 8.8 µM | 38.6 µM | 19.5 µM | 27.9 µM |  |  |  | 
CN(C)N1C(=O)C(=O)N(c2cccc3ccccc23)C1=O | > 10 µM | > 10 µM | > 10 µM | > 10 µM | > 10 µM | > 10 µM | > 10 µM | > 10 µM | > 10 µM | > 10 µM |  |  |  |  |  |  |  | 
COc1ccc2[nH]c3ccc4cc[n+](CCN5CCC(C6CCN(CC[n+]7ccc8ccc9[nH]c%10ccc(OC)cc%10c9c8c7)CC6)CC5)cc4c3c2c1 |  | 50 µM | 41.3 µM and 60.7 µM | 50 µM and > 56.9 µM | > 50 µM and 63.1 µM | 50 µM and > 100 µM | > 100 µM | > 50 µM | > 90.7 µM | 50 µM and > 100 µM | 8.76 µM |  | 4.46 µM | 1.26 µM | 0.367 µM and 0.443 µM | 6.7 µM | 3.19 µM | 34.4 µM
O=C1/C(=C/c2cccc([N+](=O)[O-])c2)N=C(c2ccccc2)N1c1nc2ccc(Sc3ccccc3)cc2[nH]1 | > 100 µM | > 100 µM | > 100 µM | > 100 µM | > 100 µM | > 100 µM | > 100 µM | 37 µM | > 100 µM | > 100 µM |  |  |  |  |  |  |  | 
